Data published in patent US12441703B2, “Carboxamides as modulators of sodium channels” (VERTEX PHARMACEUTICALS INCORPORATED, priority 2019, dated 2025).

Biological target: human NaV 1.8 (Homo sapiens, UniProt Q9Y5Y9)
Assay: E-VIPR assay for detecting and measuring NaV inhibition properties
Type: cell-based
Settings: E-VIPR assay conducted in the presence of human serum; HEK cells expressing truncated human NaV 1.8; read-out: IC50
Excerpt: Sodium ion channels are voltage-dependent proteins that can be activated by inducing membrane voltage changes by applying electric fields. The electrical stimulation instrument and methods of use, referred to as E-VIPR, are described in International Publication No. WO 2002/008748 A3 and C.-J. Huang et al. Characterization of voltage-gated sodium channel blockers by electrical stimulation and fluorescence detection of membrane potential, 24 Nature Biotech. 439-46 (2006), both of which are incorporated by reference in their entirety. The instrument comprises a microtiter plate handler, an optical system for exciting the coumarin dye while simultaneously recording the coumarin and oxonol emissions, a waveform generator, a current- or voltage-controlled amplifier, and parallel electrode pairs that are inserted into assay plate wells. Under integrated computer control, this instrument passes user-programmed electrical stimulus protocols to cells within the wells of the microtiter plate.
16-20 hours prior to running the assay on E-VIPR, HEK cells expressing a truncated form of human NaV 1.8 with full channel activity were seeded into microtiter 384-well plates, pre-coated with matrigel, at a density of 25,000 cells per well. 2.5-5% KIR2.1 Bacmam virus was added to the final cell suspension before seeding into cell plates. HEK cells were grown in Dulbecco's Modified Eagle's Medium (DMEM) supplemented with 10% FBS (Fetal Bovine Serum, qualified; Sigma #F4135), 1% NEAA (Non-Essential Amino Acids, Gibco #11140), 1% HEPES (Gibco #15630), 1% Pen-Strep (Penicillin-Streptomycin; Gibco #15140) and 5 μg/ml Blasticidin (Gibco #R210-01). Cells were expanded in vented cap cell culture flasks, with 90-95% humidity and 5% CO2.
Compound Loading Buffer (2× concentration): Na/TMA Cl Bath1 Buffer containing HS (omitted in experiments run in the absence of human serum (HS)) 50%, VABSC-1 1 mM, BSA 0.2 mg/ml (in Bath-1), KCl 9 mM, DMSO 0.75%.
• 1) To reach the final concentration in each well, 400 nL of each compound was pre-spotted (in neat DMSO) into polypropylene compound plates at 250× desired final concentration from an intermediate stock concentration of 0.075 mM, in an 11 point dose response, 3-fold dilution, resulting in a top dose of 300 nM final concentration in the cell plate. Vehicle control (neat DMSO), and positive control (an established NaV1.8 inhibitor, 25 μM final in assay in DMSO) were added manually to the outermost columns of each plate respectively. The compound plate was backfilled with 45 μL per well of Compound Loading Buffer resulting in a 250 fold dilution of compound following a 1:1 transfer of compound into the cell plate (see Step 6). Final DMSO concentration for all wells in the assay was 0.625% (0.75% DMSO was supplemented to the Compound Loading Buffer for a final DMSO concentration of 0.625%). This assay dilution protocol was adjusted to enable a higher dose range to be tested in the presence of HS or if the final assay volume was altered. • 2) Hexyl Dye Solution was prepared. • 3) Cell plates were prepared. On the day of the assay, the media was aspirated, and the cells were washed three times with 80 μL of Bath-1 buffer, maintaining 25 μL residual volume in each well. • 4) 25 μL per well of Hexyl Dye Solution was dispensed into the cell plates. The cells were incubated for 20 minutes at room temperature or ambient conditions in darkness. • 5) 45 μL per well of Compound Loading Buffer was dispensed into compound plates. • 6) The cell plates were washed three times with 80 μL per well of Bath-1 Buffer, leaving 25 µL of residual volume. Then 25 μL per well from compound plate was transferred to each cell plate. The mixture was incubated for 30 minutes at room temperature/ambient conditions. • 7) The cell plate containing compound was read on E-VIPR using the current-controlled amplifier to deliver stimulation wave pulses using a symmetrical biphasic waveform. […]

human NaV 1.8, sequence (Q9Y5Y9 whole entry, looked up): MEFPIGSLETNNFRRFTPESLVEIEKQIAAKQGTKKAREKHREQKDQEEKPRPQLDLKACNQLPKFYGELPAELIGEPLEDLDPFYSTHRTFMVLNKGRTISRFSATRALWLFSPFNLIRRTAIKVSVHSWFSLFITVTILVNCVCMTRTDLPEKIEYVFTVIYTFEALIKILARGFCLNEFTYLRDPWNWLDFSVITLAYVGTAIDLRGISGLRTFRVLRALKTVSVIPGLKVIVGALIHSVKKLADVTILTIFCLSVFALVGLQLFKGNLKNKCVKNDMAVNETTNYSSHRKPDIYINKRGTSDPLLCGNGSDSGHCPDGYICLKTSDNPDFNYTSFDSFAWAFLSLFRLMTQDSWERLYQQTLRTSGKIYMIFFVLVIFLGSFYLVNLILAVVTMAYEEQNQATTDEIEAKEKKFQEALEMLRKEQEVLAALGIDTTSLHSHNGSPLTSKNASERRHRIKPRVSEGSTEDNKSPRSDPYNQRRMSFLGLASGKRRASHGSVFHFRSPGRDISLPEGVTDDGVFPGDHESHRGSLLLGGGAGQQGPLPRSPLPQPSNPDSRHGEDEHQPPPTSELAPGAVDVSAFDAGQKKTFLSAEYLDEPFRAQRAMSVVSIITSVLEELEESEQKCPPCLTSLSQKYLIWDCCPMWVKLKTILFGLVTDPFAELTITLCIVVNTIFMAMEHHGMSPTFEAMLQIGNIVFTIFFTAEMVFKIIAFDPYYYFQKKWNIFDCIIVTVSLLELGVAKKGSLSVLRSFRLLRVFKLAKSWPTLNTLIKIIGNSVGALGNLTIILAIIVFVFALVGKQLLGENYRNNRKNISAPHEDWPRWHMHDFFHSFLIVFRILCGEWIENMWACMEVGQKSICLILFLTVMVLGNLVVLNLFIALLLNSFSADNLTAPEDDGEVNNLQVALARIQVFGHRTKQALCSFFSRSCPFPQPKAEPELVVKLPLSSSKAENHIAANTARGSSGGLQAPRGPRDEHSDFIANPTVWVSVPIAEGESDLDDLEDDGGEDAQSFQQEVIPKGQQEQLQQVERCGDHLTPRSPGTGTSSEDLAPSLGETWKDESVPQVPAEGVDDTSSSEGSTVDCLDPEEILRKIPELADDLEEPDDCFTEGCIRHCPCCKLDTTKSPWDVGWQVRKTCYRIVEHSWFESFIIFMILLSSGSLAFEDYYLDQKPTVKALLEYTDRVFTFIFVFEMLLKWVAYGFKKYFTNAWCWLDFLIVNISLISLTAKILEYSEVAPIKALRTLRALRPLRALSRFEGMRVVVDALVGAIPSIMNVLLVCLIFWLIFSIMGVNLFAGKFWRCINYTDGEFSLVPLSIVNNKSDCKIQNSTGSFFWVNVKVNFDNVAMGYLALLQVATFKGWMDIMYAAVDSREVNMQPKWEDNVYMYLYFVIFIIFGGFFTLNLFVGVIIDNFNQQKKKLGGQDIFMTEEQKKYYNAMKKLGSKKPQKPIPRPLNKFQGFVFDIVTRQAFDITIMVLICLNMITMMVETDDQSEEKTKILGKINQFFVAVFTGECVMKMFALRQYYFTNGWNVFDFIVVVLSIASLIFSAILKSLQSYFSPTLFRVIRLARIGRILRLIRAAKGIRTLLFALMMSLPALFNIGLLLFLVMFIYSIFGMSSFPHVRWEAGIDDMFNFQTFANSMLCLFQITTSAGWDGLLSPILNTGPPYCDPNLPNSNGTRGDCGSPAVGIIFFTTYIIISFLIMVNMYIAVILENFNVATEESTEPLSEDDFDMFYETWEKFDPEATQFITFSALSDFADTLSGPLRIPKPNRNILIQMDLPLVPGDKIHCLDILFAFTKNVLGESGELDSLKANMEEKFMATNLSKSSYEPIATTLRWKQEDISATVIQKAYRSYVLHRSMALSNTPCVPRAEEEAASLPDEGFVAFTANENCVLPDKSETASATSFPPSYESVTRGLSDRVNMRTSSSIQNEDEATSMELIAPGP

Row | IC50 [nM] | Structure (SMILES)
1 | 10 | NC(=O)c1cc(NC(=O)c2c(Oc3ccc(OC(F)(F)F)cc3C3CC3)ccc(C(F)(F)F)c2F)ccn1 [Compound 41, 4-[[6-[2-cyclopropyl-4-(trifluoromethoxy)phenoxy]-2-fluoro-3-(trifluoromethyl)benzoyl]amino]pyridine-2-carboxamide]
2 | 8 | Cc1c(Oc2ccc(C(F)(F)F)c(F)c2C(=O)Nc2ccnc(C(N)=O)c2)ccc(F)c1F [Compound 42, 4-[[6-(3,4-difluoro-2-methyl-phenoxy)-2-fluoro-3-(trifluoromethyl)benzoyl]amino]pyridine-2-carboxamide]
3 | 13 | COc1cc(Cl)ccc1Oc1ccc(C(F)(F)F)c(F)c1C(=O)Nc1ccnc(C(N)=O)c1 [Compound 43, 4-[[6-(4-chloro-2-methoxy-phenoxy)-2-fluoro-3-(trifluoromethyl)benzoyl]amino]pyridine-2-carboxamide]
4 | 22 | COc1cc(C(F)(F)C(F)(F)F)ccc1Oc1ccc(C(F)(F)F)c(F)c1C(=O)Nc1ccnc(C(N)=O)c1 [Compound 44, 4-[[2-fluoro-6-[2-methoxy-4-(1,1,2,2,2-pentafluoroethyl)phenoxy]-3-(trifluoromethyl)benzoyl]amino]pyridine-2-carboxamide]
5 | > 3000 | COc1cc(C)cc(OC)c1Oc1ccc(C(F)(F)F)c(F)c1C(=O)Nc1ccnc(C(N)=O)c1 [Compound 45, 4-[[6-(2,6-dimethoxy-4-methyl-phenoxy)-2-fluoro-3-(trifluoromethyl)benzoyl]amino]pyridine-2-carboxamide]
6 | > 3000 | NC(=O)c1cc(NC(=O)c2c(Oc3c(F)cc(F)cc3F)ccc(C(F)(F)F)c2F)ccn1 [Compound 46, 4-[[2-fluoro-3-(trifluoromethyl)-6-(2,4,6-trifluorophenoxy)benzoyl]amino]pyridine-2-carboxamide]
7 | 1400 | Cc1cc(Cl)cc(Cl)c1Oc1ccc(C(F)(F)F)c(F)c1C(=O)Nc1ccnc(C(N)=O)c1 [Compound 47, 4-[[6-(2,4-dichloro-6-methyl-phenoxy)-2-fluoro-3-(trifluoromethyl)benzoyl]amino]pyridine-2-carboxamide]
8 | 50 | Cc1c(F)ccc(Oc2ccc(C(F)(F)F)c(F)c2C(=O)Nc2ccnc(C(N)=O)c2)c1C [Compound 48, 4-[[2-fluoro-6-(4-fluoro-2,3-dimethyl-phenoxy)-3-(trifluoromethyl)benzoyl]amino]pyridine-2-carboxamide]
9 | 42 | NC(=O)c1cc(NC(=O)c2c(Oc3ccc(F)c(F)c3F)ccc(C(F)(F)F)c2F)ccn1 [Compound 49, 4-[[2-fluoro-3-(trifluoromethyl)-6-(2,3,4-trifluorophenoxy)benzoyl]amino]pyridine-2-carboxamide]
10 | 33 | Cc1cc(Cl)ccc1Oc1ccc(C(F)(F)F)c(F)c1C(=O)Nc1ccnc(C(N)=O)c1 [Compound 50, 4-[[6-(4-chloro-2-methyl-phenoxy)-2-fluoro-3-(trifluoromethyl)benzoyl]amino]pyridine-2-carboxamide]
11 | 200 | NC(=O)c1cc(NC(=O)c2c(Oc3ccc(Cl)cc3F)ccc(C(F)(F)F)c2F)ccn1 [Compound 51, 4-[[6-(4-chloro-2-fluoro-phenoxy)-2-fluoro-3-(trifluoromethyl)benzoyl]amino]pyridine-2-carboxamide]
12 | 170 | COc1cc(F)ccc1Oc1ccc(C(F)(F)F)c(OC)c1C(=O)Nc1ccnc(C(N)=O)c1 [Compound 52, 4-[[6-(4-fluoro-2-methoxy-phenoxy)-2-methoxy-3-(trifluoromethyl)benzoyl]amino]pyridine-2-carboxamide]
13 | 110 | COc1c(C(F)(F)F)ccc(Oc2ccc(OC(C)C)cc2)c1C(=O)Nc1ccnc(C(N)=O)c1 [Compound 53, 4-[[6-(4-isopropoxyphenoxy)-2-methoxy-3-(trifluoromethyl)benzoyl]amino]pyridine-2-carboxamide]
14 | 510 | COc1ccc(Cl)cc1Oc1ccc(C(F)(F)F)c(OC)c1C(=O)Nc1ccnc(C(N)=O)c1 [Compound 54, 4-[[6-(5-chloro-2-methoxy-phenoxy)-2-methoxy-3-(trifluoromethyl)benzoyl]amino]pyridine-2-carboxamide]
15 | 420 | COc1c(C(F)(F)F)ccc(Oc2ccc(F)c(F)c2)c1C(=O)Nc1ccnc(C(N)=O)c1 [Compound 55, 4-[[6-(3,4-difluorophenoxy)-2-methoxy-3-(trifluoromethyl)benzoyl]amino]pyridine-2-carboxamide]
16 | 48 | COc1c(C(F)(F)F)ccc(Oc2ccc(OC(C)C)c(Cl)c2)c1C(=O)Nc1ccnc(C(N)=O)c1 [Compound 56, 4-[[6-(3-chloro-4-isopropoxy-phenoxy)-2-methoxy-3-(trifluoromethyl)benzoyl]amino]pyridine-2-carboxamide]
17 | 350 | COc1c(C(F)(F)F)ccc(Oc2ccc(F)c(Cl)c2)c1C(=O)Nc1ccnc(C(N)=O)c1 [Compound 57, 4-[[6-(3-chloro-4-fluoro-phenoxy)-2-methoxy-3-(trifluoromethyl)benzoyl]amino]pyridine-2-carboxamide]
18 | 150 | COc1c(Oc2ccc(C(F)(F)F)c(OC)c2C(=O)Nc2ccnc(C(N)=O)c2)ccc(F)c1F [Compound 58, 4-[[6-(3,4-difluoro-2-methoxy-phenoxy)-2-methoxy-3-(trifluoromethyl)benzoyl]amino]pyridine-2-carboxamide]
19 | 100 | COc1c(C(F)(F)F)ccc(Oc2ccc(F)cc2Cl)c1C(=O)Nc1ccnc(C(N)=O)c1 [Compound 59, 4-[[6-(2-chloro-4-fluoro-phenoxy)-2-methoxy-3-(trifluoromethyl)benzoyl]amino]pyridine-2-carboxamide]
20 | 520 | COc1c(C(F)(F)F)ccc(Oc2ccc(OC3CCCCC3)cc2)c1C(=O)Nc1ccnc(C(N)=O)c1 [Compound 60, 4-[[6-[4-(cyclohexoxy)phenoxy]-2-methoxy-3-(trifluoromethyl)benzoyl]amino]pyridine-2-carboxamide]
21 | 490 | COc1c(C(F)(F)F)ccc(Oc2ccc(F)c(C)c2)c1C(=O)Nc1ccnc(C(N)=O)c1 [Compound 61, 4-[[6-(4-fluoro-3-methyl-phenoxy)-2-methoxy-3-(trifluoromethyl)benzoyl]amino]pyridine-2-carboxamide]
22 | 440 | COc1c(C(F)(F)F)ccc(Oc2ccc(F)cc2F)c1C(=O)Nc1ccnc(C(N)=O)c1 [Compound 62, 4-[[6-(2,4-difluorophenoxy)-2-methoxy-3-(trifluoromethyl)benzoyl]amino]pyridine-2-carboxamide]
23 | 1800 | COc1c(C(F)(F)F)ccc(Oc2ccccc2)c1C(=O)Nc1ccnc(C(N)=O)c1 [Compound 63, 4-[[2-methoxy-6-phenoxy-3-(trifluoromethyl)benzoyl]amino]pyridine-2-carboxamide]
24 | 63 | COc1c(C(F)(F)F)ccc(Oc2ccc(F)cc2C)c1C(=O)Nc1ccnc(C(N)=O)c1 [Compound 64, 4-[[6-(4-fluoro-2-methyl-phenoxy)-2-methoxy-3-(trifluoromethyl)benzoyl]amino]pyridine-2-carboxamide]
25 | 36 | COc1c(C(F)(F)F)ccc(Oc2ccc(OC(F)(F)F)c(F)c2)c1C(=O)Nc1ccnc(C(N)=O)c1 [Compound 65, 4-[[6-[3-fluoro-4-(trifluoromethoxy)phenoxy]-2-methoxy-3-(trifluoromethyl)benzoyl]amino]pyridine-2-carboxamide]
26 | 16 | COc1c(C(F)(F)F)ccc(Oc2ccc(OC(F)(F)F)cc2Cl)c1C(=O)Nc1ccnc(C(N)=O)c1 [Compound 66, 4-[[6-[2-chloro-4-(trifluoromethoxy)phenoxy]-2-methoxy-3-(trifluoromethyl)benzoyl]amino]pyridine-2-carboxamide]
